Results as given in US20240270692A1, “S(+) FORM OF 4-(2,4-DIFLUOROPHENYL)-2-(1H-INDOL-3-YL)-4-OXO-BUTANOIC ACID” (TOHOKU UNIVERSITY, priority 2021, published 2024).
Like-named read-outs stand apart in the source and are kept apart here.

Assays:
[1] = In vivo administration test 1: intravenous administration, plasma concentration by LC-MS/MS; set-up: species or system cynomolgus monkeys; details: for half-life / AUC / ke: male cynomolgus monkeys, intravenous, single dose 1 mg/kg, plasma
Method: Each enantiomer (S(+) form or R(−) form) of MA5 was dissolved in a mixed solution of physiological saline and 0.1 N sodium hydroxide (9:1), and filtered and sterilized by using a 0.22 μm filter to prepare a solution containing 2 mL/kg of each enantiomer of MA5. Next, the solution containing each enantiomer of MA5 was intravenously administered to each of three 4- to 5-year-old male cynomolgus monkeys at a single dose of 1 mg/kg. As a control, a solution containing no enantiomer of MA5 was also administered in the same manner. […] The analysis conditions for LC-MS/MS are as follows.
As an ionization unit, an apparatus in which NANOSPACESI-2 (manufactured by OSAKA SODA CO., LTD.) as a high-performance liquid chromatograph was connected to a triple quadrupole mass spectrometer (TSQ Quantum Ultra, manufactured by Thermo Fisher Scientific Inc.) equipped with an ESI probe was used. The S(+) form of MA5 (S-(+)-MA5) and the R(−) form of MA5 (R-(−)-MA5), which are substances to be analyzed, were subjected to quantitative analysis by the internal standard method using their respective stable isotopes S-(+)-MA5-d6 and R-(−)-MA5-d6. […] AD-3R (150×2.1 mm i.d., 3.0 μm particle size, manufactured by Daicel Corporation) was used as the analytical column, and CAPCELL C8UG120 (10×2.0 mm i.d., 5.0 μm particle size, manufactured by OSAKA SODA CO., LTD.) was used as the guard column. The column oven temperature was 35° C. Formic acid/water (0.1/100 [v/v]) (solution A)/acetonitrile (solution B) was used as the mobile phase, and the flow rate was 200 μL/min. The measurement was carried out under an isocratic condition in which a single composition of solution A/solution B (57/43 [v/v]) was used for elution. Solution A/solution B (57/43 [v/v]) was used until the analysis time reached 9.5 minutes, and solution A/solution B (10/90 [v/v]) was used after the analysis time reached 9.7 minutes. In addition, a system for washing the column with solution A/solution B (10/90 [v/v]) was incorporated while the analysis time elapsed was 9.7 minutes to 11.7 minutes, and the column was equilibrated with solution A/solution B (57/43 [v/v]) while the analysis time elapsed was 11.8 minutes to 15 minutes. The retention time was 6.95 minutes for S-(+)-MA5, 6.80 minutes for S-(+)-MA5-d6, 8.69 minutes for R-(−)-MA5, and 8.56 minutes for R-(−)-MA5-d6.
The MS conditions were detected in negative ion mode, a spray voltage set to 2.5 kV, a vaporizer temperature set to 250° C., and an ion transfer tube temperature set to 250° C. The precursor ion>product ion SRM channel was set to “m/z 328.0>116.2” for MA5 and “m/z 334.0>121.1” for MA5-d6. The collision energy for generating a product ion was set to 12 eV for MA5 and 17 eV for MA5-d6. Waveform analysis and quantitative calculation by the internal standard method were carried out by using Xcalibur (manufactured by Thermo Fisher Scientific Inc.).

[2] = tested on: MT-ND3 mutant cell line; assay: Cytotoxicity evaluation 2: cell survival level by MTT assay (Cell Counting Kit-8); format: cell-based, human; details: high concentrations (30 μM and 100 μM), cultured 5 days
Method: (§1) Hereinafter, the present invention will be described more specifically with reference to Examples, but the technical scope of the present invention is not limited to these Examples. The INS-1E cell line was cultured in an incubator (37° C., 21% O2, 5% CO2) in the presence of RPMI-1640 Medium (manufactured by GIBCO) containing 11.1 mM glucose, 10% FBS, 1 mM sodium pyruvate, 10 mM HEPES, 2 mM glutamine, 50 μM β-mercaptoethanol, penicillin at 100 U/mL, and streptomycin at 100 μg/mL (hereinafter simply referred to as “RPMI-1640 Medium”). […]
An MT-ND3 mutant cell line was seeded in a 96-well plate at 2×10^3 cells per well and cultured for 2 days in the presence of DMEM Low Glucose culture medium, then 0.1% DMSO, which is a solvent for the compounds, or various concentrations (0.003 μM, 0.01 μM, 0.03 μM, […], 0.3 μM, 1 μM, 3 μM, 10 μM, 30 μM, or 100 μM) of each enantiomer (S(+) form or R(−) form) of MA5 was added, the cells were further cultured for 5 days, and then the cell survival level was measured. Specifically, the cell survival level was measured by an MTT assay using Cell Counting Kit-8 (manufactured by Dojindo Laboratories). That is, 100 μL of Cell Count Reagent SF was added to each well, incubated for 2 hours, and stirred for 3 seconds with a microplate reader, and the absorbance at 450 nm (reference: 750 nm) was measured (see FIG. 4). […]

[3] = tested on: MT-ND3 mutant cell line; assay: Evaluation of ability to produce ATP in animal cells; format: cell-based, human; details: 0.1 μM or 1 μM, cultured 6 hours, S(+) form versus R(−) form
Method: as §1
An MT-ND3 mutant cell line was seeded in a 96-well plate at 2×10^3 cells per well and cultured for 24 hours in the presence of DMEM Low Glucose culture medium, then 0.1% DMSO, which is a solvent for the compounds, or various concentrations (0.1 μM or 1 μM) of three compounds (racemic form of MA5, S(+) form of MA5, or R(−) form of MA5) were added, and the cells were cultured for 6 hours, and then the concentration of ATP produced in the culture medium was measured with GloMa 96 Microplate Luminometer (Promega Corporation) by using a “cellular” ATP measurement reagent (manufactured by TOYO B-Net Co., Ltd.).

[4] = cynomolgus monkey, read-out: AUC value

half-life ([1]; cynomolgus monkey) [h] | AUC [1, 4] [ng·h/mL] | AUC [1] [ng·h/mL] | ke [1] [h⁻¹] | R(−) form of MA5 in plasma after administration of the S(+) form (chiral conversion in vivo) ([1]; 5 minutes to 24 hours after intravenous administration, cynomolgus monkeys) | more likely to be retained in blood than the R(−) form of MA5 ([1]; from AUC values, intravenous 1 mg/kg, cynomolgus monkeys) [times] | SMILES | viable cell level [2] | level of ATP production [3]
1.1 | 12000 | 12000 | 0.63 |  |  | O=C(C[C@@H](C(=O)O)c1c[nH]c2ccccc12)c1ccc(F)cc1F [R(−) form of MA5, 4-(2,4-difluorophenyl)-2-(1H-indol-3-yl)-4-oxo-butanoic acid] | a significant decrease in viable cell level was observed | No difference was observed
2.4 | 30000 | 30000 | 0.29 | not detected | 2.5 | O=C(C[C@H](C(=O)O)c1c[nH]c2ccccc12)c1ccc(F)cc1F [S(+) form of MA5, 4-(2,4-difluorophenyl)-2-(1H-indol-3-yl)-4-oxo-butanoic acid] | no decrease in viable cell level was observed | No difference was observed
